We go through eight molecules from article PMC11589101, “Profiling the endocrine-disrupting properties of triazines, triazoles, and short-chain PFAS” (Toxicological Sciences, 2024).

As usually defined, the IC50 is the point on the concentration scale where inhibition reaches its midpoint.

The target in assay [1] is T1, human transthyretin (TTR) (Homo sapiens, UniProt P02766). The experiment in a line: FITC-T4 TTR-binding assay, initial (original) method. As to the method:
(§1) All incubations were performed at room temperature.
(§2) Fluorescence enhancement was determined for each well by subtracting its relative fluorescence units (RFU) before TTR addition from its RFUs after TTR addition. The resulting values were normalized to percentages of the vehicle control. A concentration–response curve was fitted through the data using the same model as in the reporter gene assays.
After 15 min of incubation, fluorescence was measured and fluorescence enhancement was calculated by subtracting RFU without TTR from RFU with TTR. Further data analysis was similar to the screening assays.

For assay [2], the target named is T1, human transthyretin (TTR). The assay is described as follows: FITC-T4 TTR-binding assay, screening method. As to the method: as §1
In the screening tests, 48 μl of Tris-HCl buffer (pH 8.0) was added to each well of black low-binding 96-well plates. Two microliters of each test compound dissolved in their respective solvent was added to each well and the plate was shaken at 600 rpm for 5 min. […] Fluorescence was measured again to check for possible autofluorescence or quenching by the test compound.
as §2

The test system of assay [3] is steroidogenesis in H295R cells. The format is cell-based, human. Conditions: for effect on steroid hormone levels compared with vehicle-treated controls: highest noncytotoxic exposure concentration. The protocol:
All experiments were performed using cells in passages 5 to 10. First, the highest noncytotoxic concentration (<10% decrease in viability) was determined for each compound with MTT assays. Next, the levels of 13 steroid hormones were determined in the medium after exposure of the H295R cells to the highest noncytotoxic concentration using LC-MS/MS. These concentrations were tested in triplicate (n = 3) in 3 independent experiments (N = 3), and all 9 samples were measured in LC-MS/MS. […] These dilution series were tested in 3 independent experiments (N = 3), with triplicate exposures in each of these experiments (n = 3). Supernatants of the triplicate exposures per experiment were pooled after the 48 h of exposure and the 3 pooled samples were measured with LC-MS/MS. This was done to keep the number of LC-MS/MS measurements manageable.
The exposure medium was prepared by diluting stock solutions 1,000× in the cell culture medium to obtain a final concentration of 0.1% of the solvent. Exposure was started by replacing cell culture medium with the exposure medium. […] On a separate quality control plate, cells were exposed to 10 μM forskolin (Sigma-Aldrich) and 1 μM prochloraz (Sigma-Aldrich) to serve as positive control for increased and decreased steroid hormone secretion, respectively. Exposure was started by replacing the culture medium in the cell culture plates with the exposure medium.
After 48 h of exposure, the supernatant medium from each well was transferred to the wells of a clean 48-well plate, and that plate was stored at −80 °C for later steroid measurement. MTT assays were performed by adding 500 μl of 0.5 mg/ml MTT (3-(4,5-dimethylthiazol-2-yl)-2,5-diphenyltetrazolium bromide; Sigma-Aldrich) solution in medium to each well of the 24-well cell culture plate and incubating for 1 h at 37 °C with 5% CO2. After incubation, the MTT solution was discarded and 500 μl of DMSO was added to each well to lyse the cells and dissolve the formazan crystals. Plates were shaken at 700 rpm for 10 min and absorbance was measured at 560 nm wavelength.
Hormones were concentrated from supernatants by solid phase extraction using Bond Elut Plexa cartridges, 30 mg sorbent, 1.8 ml (Agilent Technologies, Santa Clara, CA, United States). The cartridges were conditioned with 1 ml of 0.5% formic acid in methanol, and subsequent addition of 1 ml of 0.5% formic acid in water. A mix of 100 μl of H295R medium sample in 1 ml of 2% formic acid in water and 50 μl of isotopically labeled internal standards mix (Table S1) was loaded on the cartridges. These were then washed with 1 ml of water followed by 1 ml of water–methanol mixture (70:30, v/v). Cartridges were dried by vacuum and the hormones were eluted with 700 μl of methanol into 96-well-deep well polypropylene plates. Eluates were evaporated to dryness during approximately 2 h in a refrigerated CentriVap vacuum concentrator and reconstituted in 150 μl of water–methanol mixture (1:1, v/v). Additionally, a serial 12-point dilution series of a mix of native steroid hormones was prepared to fit a calibration curve in order to quantify steroid concentrations.
The steroid hormones were separated prior to MS measurements on a Kinetex C18 LC Column (2.6 μm, 100 × 2.1 mm; Phenomenex, CA, United States) coupled to an Exion LC system (SCIEX, Framingham, MA, United States). The mobile phase consisted of 0.2 mM NH4F in water and pure methanol and was delivered at a flow rate of 0.6 ml/min in a gradient elution mode. The injection volume was 10 μl.
The LC-MS/MS raw data were processed using AB Sciex OS Analyst version 1.6.2 (SCIEX, Framingham, MA, United States) to calculate fold changes by dividing the measured hormone concentrations by the hormone concentrations in the vehicle controls. The fold changes were used to fit a concentration–response curve in GraphPad Prism using the same model as in the reporter gene assays, and the ECIR1.5 was estimated for each compound.

The mark [4] stands for this setting: initial method, 110 nM FITC-T4, 30 nM TTR.
Setting [5] is: initial method, 110 nM FITC-T4, 30 nM TTR, read-out: IC50 competing with FITC-T4 for binding to TTR.
The mark [6] stands for this setting: screening method, read-out: IC50 TTR-binding assay, Screening Method.

Where two headings read alike, the source gives them in different places.

As to `O=C(O)C(F)(F)C(F)(F)C(F)(F)C(F)(F)C(F)(F)F` [PFHxA, Perfluorohexanoic acid], the “% FITCT4 bound to TTR” value in assay [1] (0.1 uM) was found to be 90.7115%; in assay [1] (0.3 uM), 81.4177%; in assay [1] (1 uM), 77.1918%; in assay [1] (3 uM), 44.5805%; in assay [1] (10 uM) it was 21.8899%; in assay [1] (30 uM), 12.6684%. The “% FITCT4 bound to TTR” value in assay [1] (100 uM) is 2.971%. In assay [1] (setting [4]), the “IC10 competing with FITC-T4 for binding to TTR” value (from here on “IC10 competing with FITC-T4”) was 200 nM. Moreover, the IC50 was 2600 nM in assay [1] (setting [5]) and 2500 nM in assay [2] (setting [6]).
In the case of `O=S(=O)(O)C(F)(F)C(F)(F)C(F)(F)C(F)(F)C(F)(F)C(F)(F)F` [PFHxS, Perfluorohexane sulfonic acid], the results for the IC50 in assay [1] and in assay [2] were 270 nM and 240 nM, respectively. Also, the “% FITCT4 bound to TTR” value stood at 74.2951% in assay [1] (0.1 uM); 47.4669% in assay [1] (0.3 uM); 17.2866% in assay [1] (1 uM); 8.444% in assay [1] (3 uM); 4.647% in assay [1] (10 uM); 2.41% in assay [1] (30 uM). Moreover, the “% FITCT4 bound to TTR” value in assay [1] (100 uM) is given as 0.6647%. In addition, in assay [1] (setting [4]), the “IC10 competing with FITC-T4” value was found to be 34 nM.
Regarding `CC(C)Nc1nc(N)nc(Cl)n1` [Deethyl-atrazine], the “effect on steroid hormone levels compared with vehicle-treated controls” value (from here on “effect … compared with vehicle-treated controls”) in assay [3] (48 h) is “increased levels of progestogens, androgens, estrogens, and corticosteroids”.
Regarding `CC(C)(C)[C@@H](O)[C@@H](Cc1ccc(Cl)cc1)n1cncn1` (racemic) [Paclobutrazol], in assay [3] (H295R, 48 h), the “increased levels of progesterone and 17α-OH-progesterone compared with vehicle-treated controls” value is “up to 3.5 fold”. For the same molecule, the “effect … compared with vehicle-treated controls” value in assay [3] (48 h) is “increased levels of progesterone and decreased levels of androgens, estrogens, and corticosteroids”.
For the molecule `Cc1cccc2[nH]nnc12` [4-methylbenzotriazole, 4-Methylbenzotriazole], the “% FITCT4 bound to TTR” value in assay [1] (0.1 uM) is 96.4305%; in assay [1] (0.3 uM) it was 93.5915%; in assay [1] (1 uM) it was 89.9761%; in assay [1] (3 uM), 82.6096%; in assay [1] (10 uM), 67.1205%; in assay [1] (30 uM), 47.648%. In assay [1] (100 uM), the “% FITCT4 bound to TTR” value amounted to 21.2593%. Also, the “IC10 competing with FITC-T4” value in assay [1] (setting [4]) was determined as 1300 nM. In addition, the IC50 in assay [1] (setting [5]) is 23300 nM; in assay [2] (setting [6]), 26300 nM.
For `O=C(O)C(F)(OC(F)(F)C(F)(F)C(F)(F)F)C(F)(F)F` (stereo not drawn) [GenX, Hexafluoropropylene oxide dimer acid], the “% FITCT4 bound to TTR” value in assay [1] (0.1 uM) is given as 92.2482%; in assay [1] (0.3 uM), 91.7718%; in assay [1] (1 uM), 89.1133%; in assay [1] (3 uM), 86.8896%; in assay [1] (10 uM) it was 74.6529%; in assay [1] (30 uM), 53.6966%. The “% FITCT4 bound to TTR” value in assay [1] (100 uM) stood at 24.7329%. Besides, the “IC10 competing with FITC-T4” value in assay [1] (setting [4]) was found to be 1900 nM. The IC50 in assay [1] (setting [5]) is 31900 nM; in assay [2] (setting [6]), 30300 nM.
Turning to `CCNc1nc(Cl)nc(NC(C)C)n1` [Atrazine], in assay [3] (H295R, concentration 0.3 uM), the “11 deoxycorticosterone mean fold change” value was 1.225 fold change, the “17aOH progesterone mean fold change” value is reported as 1.062 fold change, the “17b E2 mean fold change” value is reported as 1.11 fold change and the “E1 mean fold change” value came out at 0.9324 fold change. Besides, in assay [3] (H295R, concentration 0.3 uM), the “androstenedione mean fold change” value is 1.124 fold change, the “corticosterone mean fold change” value is 1.264 fold change, the “cortisol mean fold change” value amounted to 1.18 fold change and the “testosterone mean fold change” value is 1.092 fold change. Further, in assay [3] (H295R, concentration 1 uM), the “11 deoxycorticosterone mean fold change” value stood at 1.279 fold change, the “17aOH progesterone mean fold change” value is 1.128 fold change, the “17b E2 mean fold change” value was determined as 1.2477 fold change and the “E1 mean fold change” value was determined as 1.144 fold change. Besides, in assay [3] (H295R, concentration 1 uM), the “androstenedione mean fold change” value was found to be 1.188 fold change, the “corticosterone mean fold change” value is recorded as 1.609 fold change, the “cortisol mean fold change” value is on record as 1.21 fold change and the “testosterone mean fold change” value stood at 1.129 fold change. Also, in assay [3] (H295R, concentration 3 uM), the “11 deoxycorticosterone mean fold change” value is recorded as 1.291 fold change, the “17aOH progesterone mean fold change” value worked out at 1.151 fold change, the “17b E2 mean fold change” value worked out at 1.487 fold change and the “E1 mean fold change” value is recorded as 1.415 fold change. In assay [3] (H295R, concentration 3 uM), the “androstenedione mean fold change” value is on record as 1.193 fold change, the “corticosterone mean fold change” value stood at 1.535 fold change, the “cortisol mean fold change” value was found to be 1.258 fold change and the “testosterone mean fold change” value was found to be 1.198 fold change. In assay [3] (H295R, concentration 10 uM), the “11 deoxycorticosterone mean fold change” value is given as 1.493 fold change, the “17aOH progesterone mean fold change” value is 1.43 fold change, the “17b E2 mean fold change” value is given as 2.183 fold change and the “E1 mean fold change” value amounted to 2.232 fold change. Also, in assay [3] (H295R, concentration 10 uM), the “androstenedione mean fold change” value is on record as 1.47 fold change, the “corticosterone mean fold change” value was found to be 2.296 fold change, the “cortisol mean fold change” value is recorded as 1.583 fold change and the “testosterone mean fold change” value amounted to 1.47 fold change. In assay [3] (H295R, concentration 30 uM), the “11 deoxycorticosterone mean fold change” value worked out at 1.712 fold change, the “17aOH progesterone mean fold change” value was determined as 1.877 fold change, the “17b E2 mean fold change” value is given as 2.732 fold change and the “E1 mean fold change” value was 3.048 fold change. For the same molecule, in assay [3] (H295R, concentration 30 uM), the “androstenedione mean fold change” value stood at 1.542 fold change, the “corticosterone mean fold change” value is reported as 2.489 fold change, the “cortisol mean fold change” value turned out to be 1.7 fold change and the “testosterone mean fold change” value is recorded as 1.645 fold change. In addition, in assay [3] (H295R, concentration 100 uM), the “11 deoxycorticosterone mean fold change” value is given as 2.107 fold change, the “17aOH progesterone mean fold change” value was 2.139 fold change, the “17b E2 mean fold change” value is recorded as 2.968 fold change and the “E1 mean fold change” value was found to be 3.994 fold change. For the same molecule, in assay [3] (H295R, concentration 100 uM), the “androstenedione mean fold change” value amounted to 1.612 fold change, the “corticosterone mean fold change” value is reported as 3.324 fold change, the “cortisol mean fold change” value was 2.203 fold change and the “testosterone mean fold change” value is given as 1.74 fold change. For the same molecule, the “effect … compared with vehicle-treated controls” value in assay [3] (48 h) was “increased levels of progestogens, androgens, estrogens, and corticosteroids”.
Regarding `NC(Cc1cc(I)c(Oc2cc(I)c(O)c(I)c2)c(I)c1)C(=O)O` (stereo not drawn) [T4, thyroxine, reference compound], the “IC10 competing with FITC-T4” value in assay [1] (setting [4]) came out at 2.4 nM.
